Measured values from patent US20050282757A1, “Peptide boronic acid compounds useful in anticoagulation” (Trigen Limited, priority 2002, published 2005).
Several values for one entry are separate records, joined by “and”; a condition that tells them apart may be missing. Equal entries are not always repeated. Entries after “also recorded” stand apart in the source; their conditions may differ. Marks after values point to notes of the source that are not given here.

Key:
thrombin time [1] = experiment: Intraduodenal absorption in rat, thrombin time (Examples 42 and 44); format: in vivo, male Wistar rats; set-up: Mean increase in thrombin time / Thrombin time increase: unit not given here; conditions: for Group mean thrombin time (s ± sd): 20 mg/kg intraduodenal
Procedure: • Place 10 mg of the relevant compound in an Eppendorf cup • Add 0.5 mL ethanol and shake for 10 minutes • Sonicate for 10 minutes • Add 1.5 mL of buffer • Shake for additional 15 minutes • Resulting target concentration: 5 mg/mL B. Intraduodenal Studies
The intraduodenal studies were performed using male Wistar rats, approximately 8 weeks of age and weighing between 250 and 300 g.
Food was withheld overnight prior to dosing and returned approximately 2 hours post-dose. Water was available ad libitum.
Animals were anaesthetised using gaseous halothane. A small incision was made in the abdomen and the duodenum located. Each animal received a single administration of control or test article by injection directly into the duodenum, using a constant dose volume of 4 mL/kg. Following administration the incision was closed using surgical staples.
Individual dose volumes were based on individual body weights, obtained on the day of dosing. Treatments employed for the study were as follows:
(§1) Approximately 0.6 mL of blood was collected via a tail vein into 3.8% tri sodium citrate tubes approximately 48 hours prior to dosing and again at 0.5, 1, 2, 4 and 8 hours post-dose.
(§2) Plasma was prepared by centrifugation at […] for 10 minutes at 4° C. Plasma was stored frozen (nominally −20° C.) prior to analysis in an automated coagulometer.
The thrombin times determined in example 42 were analysed to determine the standard deviation for increase in thrombin time, expressed as a percentage of the mean value (this is sometimes called the ‘coefficient of variation’).

[2] = Comparative storage stability of sodium and calcium salts (Example 49); format: physicochemical; conditions: for Tri50c (w/w %, LOD corr.): corrected for loss on drying
From the text: In both studies the active pharmaceutical ingredient was stored in grip sealed double bags within a PE/PP screw cap closed cylinder.

thrombin time [3] = experiment: Oral absorption in rat, thrombin time (Example 43); format: in vivo, male Wistar rats; conditions: 20 mg/kg oral gavage
Procedure: The procedure of Example 42 was followed.
The per-oral studies were performed using male Wistar rats, approximately 8 weeks of age and weighing between 250 and 300 g.
Food was withheld overnight prior to dosing and returned approximately 2 hours post-dose. Water was available adlibitum.
Each animal received a single administration of control or test article by oral gavage, using a constant dose volume of 4 mL/kg.
Individual dose volumes were based on individual body weights, obtained on the day of dosing.
as §1, §2

[4] = Stability in enteric-coated hard gelatin capsules, HPLC-PDA (Example 41); format: physicochemical; conditions: for Amount of Tri50c: 10 mg content in 10 ml
Procedure: TRI 50c-standard (free acid) was stored in a desiccator over phosphorus pentoxide for 2 days for drying. Afterwards, the reference standard was weighed in a volumetric flask and dissolved in a mixture of acetonitrile and water (25/75 v/v %). Aliquots of the resulting solution (ST 1A) were diluted successively with water as shown in the dilution scheme of table 4.
The stored capsules of every batch at corresponding climatic condition were removed and 10 mg of the content was weighed in a 10 ml volumetric flask and dissolved in 10 ml of a mixture of acetonitrile/water (25/75 v/v %). These solutions were injected for impurity profile analysis and for quantification respectively.
The quantitative evaluation and the impurity profile analysis were performed using an HPLC-PDA method. The processing wavelength was set as 258 nm.

thrombin time and APTT = experiment: Oral administration in dog, PK/PD (Example 45)
Procedure: Three female and three male dogs were used for each leg of the study. The weight range of the dogs was 8-18 kg.
The PD was measured as thrombin time and APTT using an automated coagulometer. Plasma concentrations were measured using an LCMS/MS method.
The dose was tailored on an individual basis for each dog.

Thrombin Time (TT) = experiment: Oral administration of TGN 167 tablets to healthy male subjects (Example 47); format: in vivo, human
Procedure: TGN 167 tablets described above were administered via the oral route to 10 healthy male subjects as single doses (randomised double blind placebo controlled study). The group consisted of 10 healthy male volunteers, 9 of whom received active compound and one of whom received placebo. An amendment was introduced for the last panel, allowing 15 subjects (instead of 9) to receive a 600 mg dose. The interval between each dose of TGN 167 was one week minimum. The allocation of the placebo was such that each volunteer would only receive placebo once during the course of the study.
Orally administered doses were: 75 mg (one tablet), 150 mg (two tablets), 300 mg (four tablets) and 600 mg (eight tablets).

[5] = individual rats dosed intraduodenally, listed as Ca Salt, hemicalcium salt, in s
[6] = capsules (no blister) 40° C./75% r.h.
[7] = capsules in blister 25° C./60% r.h.
[8] = capsules in blister 40° C./75% r.h.

Compound: COCCC[C@H](NC(=O)[C@@H]1CCCN1C(=O)[C@@H](Cc1ccccc1)NC(=O)OCc1ccccc1)B([O-])O.COCCC[C@H](NC(=O)[C@@H]1CCCN1C(=O)[C@@H](Cc1ccccc1)NC(=O)OCc1ccccc1)B([O-])O.[Ca+2] [TRI 50c calcium salt, Cbz-(R)-Phe-(S)-Pro-(R)-Mpg-B(OH)2 hemicalcium salt]
- Group mean thrombin time (s ± sd) (thrombin time [1]; 0.5 hour): 42.0 ± 6.74 s
- Group mean thrombin time (s ± sd) (thrombin time [1]; 1 hour): 34.0 ± 1.89 s
- Group mean thrombin time (s ± sd) (thrombin time [1]; 2 hour): 22.6 ± 5.10 s
- Group mean thrombin time (s ± sd) (thrombin time [1]; 4 hour): 24.4 ± 2.41 s
- Group mean thrombin time (s ± sd) (thrombin time [1]; 8 hour): 22.4 ± 1.73 s
- Group mean thrombin time (s ± sd) (thrombin time [1]; −48 hour (pre-dose)): 21.6 ± 1.77 s
- Mean increase in thrombin time (thrombin time [1]; 0.5 h minus 0 h, intraduodenal): 20.50
- Thrombin time, 0 h (thrombin time [1]; [5]): 21.97 and 18.75 and 23.57 and 21.57
- Thrombin time, 0.5 h (thrombin time [1]; [5]): 35.32 and 45.98 and 37.27 and 49.30
- Thrombin time increase (thrombin time [1]; individual rats, 0.5 h minus 0 h, listed as Ca Salt, hemicalcium salt): 13.35 and 27.23 and 13.70 and 27.73
- Color ([2]; T = 0): white
- TRI 50c (% peak area) ([2]; T = 0): 99.4 % peak area
- Tri50c (w/w %, LOD corr.) ([2]; T = 0): 99.7 w/w %
- Appearance ([2]; T = 0, hemicalcium salt): powdery,; also recorded: odourless
- Appearance ([2]; T = 1, 25° C./60% r.h.): powdery
- Color ([2]; T = 1, 25° C./60% r.h.): white
- TRI 50c (% peak area) ([2]; T = 1, 25° C./60% r.h.): 98.3 % peak area
- Tri50c (w/w %, LOD corr.) ([2]; T = 1, 25° C./60% r.h.): 101.5 w/w %
- Appearance ([2]; T = 1, 40° C./75% r.h.): powdery
- Color ([2]; T = 1, 40° C./75% r.h.): white
- TRI 50c (% peak area) ([2]; T = 1, 40° C./75% r.h.): 95.2 % peak area
- Tri50c (w/w %, LOD corr.) ([2]; T = 1, 40° C./75% r.h.): 100.6 w/w %
- Appearance ([2]; T = 1, −20° C.): powdery
- Color ([2]; T = 1, −20° C.): white
- TRI 50c (% peak area) ([2]; T = 1, −20° C.): 99.1 % peak area
- Tri50c (w/w %, LOD corr.) ([2]; T = 1, −20° C.): 102.7 w/w %
- Appearance ([2]; T = 3, 25° C./60% r.h.): powdery
- Color ([2]; T = 3, 25° C./60% r.h.): white
- TRI 50c (% peak area) ([2]; T = 3, 25° C./60% r.h.): 97.5 % peak area
- Tri50c (w/w %, LOD corr.) ([2]; T = 3, 25° C./60% r.h.): 104.3 w/w %
- Appearance ([2]; T = 3, 40° C./75% r.h.): powdery
- Color ([2]; T = 3, 40° C./75% r.h.): white
- TRI 50c (% peak area) ([2]; T = 3, 40° C./75% r.h.): 71.2 % peak area
- Tri50c (w/w %, LOD corr.) ([2]; T = 3, 40° C./75% r.h.): 82.0 w/w %
- Appearance ([2]; T = 3, −20° C.): powdery
- Color ([2]; T = 3, −20° C.): white
- TRI 50c (% peak area) ([2]; T = 3, −20° C.): 99.2 % peak area
- Tri50c (w/w %, LOD corr.) ([2]; T = 3, −20° C.): 103.0 w/w %
- TRI 50c (% peak area) ([2]; T = 12, 25° C./60% r.h.): 96.9 % peak area
- Tri50c (w/w %, LOD corr.) ([2]; T = 12, 25° C./60% r.h.): 94.8 w/w %
- Group mean thrombin times (s ± sd) (thrombin time [3]; 0.5 hour): 25.9 ± 3.05 s
- Group mean thrombin times (s ± sd) (thrombin time [3]; 1 hour): 25.7 ± 1.94 s
- Group mean thrombin times (s ± sd) (thrombin time [3]; 2 hour): 24.3 ± 0.98 s
- Group mean thrombin times (s ± sd) (thrombin time [3]; 4 hour): 25.0 ± 1.31 s
- Group mean thrombin times (s ± sd) (thrombin time [3]; 8 hour): 22.9 ± 3.46 s
- Group mean thrombin times (s ± sd) (thrombin time [3]; −48 hour (pre-dose)): 23.4 ± 1.25 s
- Benzaldeh. % Area in impurity profile [4, 6]: 3.64 % Area
- Imp.I % Area in impurity profile [4, 6]: 0.84 % Area
- Amount of Tri50c [4, 6]: 780.097 µg/mL
- Benzaldeh. % Area in impurity profile [4, 7]: 1.29 % Area
- Amount of Tri50c [4, 7]: 930.903 µg/mL
- Benzaldeh. % Area in impurity profile [4, 8]: 2.37 % Area
- Amount of Tri50c [4, 8]: 786.223 µg/mL
- Purity (HPLC % Area) T1 ([4]; capsules in blister, 1.5 month 25° C./60% r.h., hemicalcium salt): 98.0 HPLC % Area
- Purity (HPLC % Area) T1 ([4]; capsules in blister, 1.5 month 25° C./60% r.h., listed as TRI50C Ca Salt, hemicalcium salt): 98.02 HPLC % Area
- Purity (HPLC % Area) T1 ([4]; capsules in blister, 1.5 month 40° C./75% r.h., hemicalcium salt): 97.2 HPLC % Area
- Purity (HPLC % Area) T1 ([4]; capsules in blister, 1.5 month 40° C./75% r.h., listed as TRI50C Ca Salt, hemicalcium salt): 97.19 HPLC % Area
- Purity (HPLC % Area) T1 ([4]; capsules without blister, 1.5 month 40° C./75% r.h., hemicalcium salt): 95.0 HPLC % Area
- Purity (HPLC % Area) T1 ([4]; capsules without blister, 1.5 month 40° C./75% r.h., listed as TRI50C Ca Salt, hemicalcium salt): 94.96 HPLC % Area
- Purity (HPLC % Area) T0 ([4]; purity of the batch before storage, hemicalcium salt): 99.2^2) HPLC % Area and 99.2^2 HPLC % Area
- mean thrombin clotting time 8 hours post dose (thrombin time and APTT): 20.2 s
- time of peak thrombin time post dose (thrombin time and APTT): three hours post dose
- mean APTT at peak (thrombin time and APTT; 3 hours following administration, from 14.5 seconds): 18 s
- mean thrombin clotting time at peak (C max) (thrombin time and APTT; base line 15 seconds (calcium salt), 15.4 seconds (TRI 50c)): 80.5 s
- tolerance (thrombin time and APTT; enterically coated gelatine capsules): tolerated well with no adverse events
- estimated bioavailability in some animals (thrombin time and APTT; estimated from thrombin clotting times): ≤ 50%
- mean estimated bioavailability (thrombin time and APTT; estimated from thrombin clotting times, including two lower responders): 25%
- peak thrombin clotting times achieved by all dogs (thrombin time and APTT; individual dogs): up to 148 seconds
- safety assessments (Thrombin Time (TT); oral 75, 150, 300, 600 mg): No clinically significant findings
- time after administration at which all TT had returned to baseline (Thrombin Time (TT); oral tablets): 10 h
- effect on thrombin time (TT) (Thrombin Time (TT); oral tablets 75-600 mg): dose-related increase in the Thrombin Time (TT)
- adverse clinical events (Thrombin Time (TT); study period of 24 hours, any dose): no adverse clinical events of either a general or cardiovascular nature
